For this assay, the system named is P388 leukemia ip, CD2F1 mice, survival T/C. Kind of assay: NCI In Vivo Anticancer Drug Screen. Data for tumor model P388 Leukemia (intraperitoneal) in CD2F1 (CDF1) mice. The note with it: endpoint: median survival time, higher = longer survival. In short, it runs like this: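 Mice carrying the transplanted tumor received test compound or vehicle. Survival was recorded in each group, and the value is the treated-group measurement divided by that of the vehicle-treated control group.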

[1] abbreviates: dose: 50.0 mg/kg/injection, schedule: Q01DX005 (ip), vehicle: saline with Tween-80.
Setting [2] is: dose: 100.0 mg/kg/injection, schedule: Q01DX005 (ip), vehicle: saline with Tween-80.
Setting [3] is: dose: 200.0 mg/kg/injection, schedule: Q01DX005 (ip), vehicle: saline with Tween-80.
The mark [4] stands for this setting: dose: 12.5 mg/kg/injection, schedule: Q01DX009 (ip), vehicle: Klucel (hydroxypropylcellulose) (HPC).
Where [5] appears, read: dose: 25.0 mg/kg/injection, schedule: Q01DX009 (ip), vehicle: Klucel (hydroxypropylcellulose) (HPC).
Where [6] appears, read: dose: 50.0 mg/kg/injection, schedule: Q01DX009 (ip), vehicle: Klucel (hydroxypropylcellulose) (HPC).
Setting [7] is: dose: 60.0 mg/kg/injection, schedule: Q01DX005 (ip), vehicle: saline with Tween-80.
Setting [8] is: dose: 120.0 mg/kg/injection, schedule: Q01DX005 (ip), vehicle: saline with Tween-80.
The mark [9] stands for this setting: dose: 240.0 mg/kg/injection, schedule: Q01DX005 (ip), vehicle: saline with Tween-80.
Where [10] appears, read: dose: 50.0 mg/kg/injection, schedule: Q01DX009 (ip), vehicle: saline with Tween-80.
Where [11] appears, read: dose: 100.0 mg/kg/injection, schedule: Q01DX009 (ip), vehicle: saline with Tween-80.
[12] abbreviates: dose: 200.0 mg/kg/injection, schedule: Q01DX009 (ip), vehicle: saline with Tween-80.
[13] abbreviates: dose: 25.0 mg/kg/injection, schedule: Q01DX009 (ip), vehicle: saline with Tween-80.

Values joined by “and” are separate entries in the source; they are usually repeats but may differ in a detail not shown here. Identical values can stand only once. Inconclusive results and toxic doses are left out.

Turning to `O=c1c(-c2ccc3c(c2)OCO3)coc2c3c(ccc12)OCO3`, the T/C reads like this: (dose: 8.0 mg/kg/injection, schedule: Q01DX005 (ip), vehicle: Klucel (hydroxypropylcellulose) (HPC)) 93 % of control; (dose: 16.0 mg/kg/injection, schedule: Q01DX005 (ip), vehicle: Klucel (hydroxypropylcellulose) (HPC)) 100 % of control; (dose: 32.0 mg/kg/injection, schedule: Q01DX005 (ip), vehicle: Klucel (hydroxypropylcellulose) (HPC)) 94 % of control; (dose: 64.0 mg/kg/injection, schedule: Q01DX005 (ip), vehicle: Klucel (hydroxypropylcellulose) (HPC)) 88 % of control.

As for `CCOC(=O)C(C(=O)OCC)n1c(=O)c2c(ncn2C)n(C)c1=O`, the T/C is, setting by setting: (dose: 100.0 mg/kg/injection, schedule: Q01DX001 (ip), vehicle: Klucel (hydroxypropylcellulose) (HPC)) 110 % of control; (dose: 200.0 mg/kg/injection, schedule: Q01DX001 (ip), vehicle: Klucel (hydroxypropylcellulose) (HPC)) 101 % of control; (dose: 400.0 mg/kg/injection, schedule: Q01DX001 (ip), vehicle: Klucel (hydroxypropylcellulose) (HPC)) 105 % of control.

Take `O=C(Nc1ccc(Cl)c(Cl)c1Cl)/C(Cl)=C1/Sc2ccccc2NC1=O`: the T/C runs as follows: under setting [1], 108 % of control; under setting [2], 101 % of control; under setting [3], 101 % of control.

`CCN(CC)CCNc1ccc([N+](=O)[O-])cc1[N+](=O)[O-]`: the T/C (dose: 6.25 mg/kg/injection, schedule: Q01DX009 (ip), vehicle: Klucel (hydroxypropylcellulose) (HPC)) was 93 % of control; the T/C under setting [4] is 105 % of control; the T/C under setting [5] was 114 % of control; the T/C under setting [6] is 99 % of control.

For `Nc1ccc2c(=O)[nH]cnc2c1`, the T/C (dose: 12.0 mg/kg/injection, schedule: Q01DX005 (ip), vehicle: Klucel (hydroxypropylcellulose) (HPC)) was 101 % of control; the T/C (dose: 25.0 mg/kg/injection, schedule: Q01DX005 (ip), vehicle: Klucel (hydroxypropylcellulose) (HPC)) was 108 % of control; the T/C (dose: 50.0 mg/kg/injection, schedule: Q01DX005 (ip), vehicle: Klucel (hydroxypropylcellulose) (HPC)) is 106 % of control and 116 % of control; the T/C (dose: 100.0 mg/kg/injection, schedule: Q01DX005 (ip), vehicle: Klucel (hydroxypropylcellulose) (HPC)) is 104 % of control.

For `COc1ccc(OC)c(NC(=O)CCCC(=O)C(C#N)c2ccc(CC#N)cc2)c1` (stereo not drawn), the T/C is 98 % of control under setting [7], 98 % of control under setting [8] and 103 % of control under setting [9].

For the compound `CCOC(=O)C1C2CCC(O2)C1C#N` (stereo not drawn), the T/C by setting is: (dose: 15.0 mg/kg/injection, schedule: Q01DX005 (ip), vehicle: saline with Tween-80) 100 % of control; (dose: 30.0 mg/kg/injection, schedule: Q01DX005 (ip), vehicle: saline with Tween-80) 101 % of control; under setting [7], 93 % of control.

As for `CCOc1ccc2nc3cc(N=Nc4c(C)c(CN(CC)CC)cc(C)c4O)ccc3c(N)c2c1`, the T/C is 108 % of control under setting [10], 100 % of control under setting [11] and 106 % of control under setting [12].

`C=C(CN1CCCC1)C(=O)c1ccc(OC)cc1`: the T/C is 97 % of control (dose: 0.93 mg/kg/injection, schedule: Q01DX005 (ip), vehicle: saline); 117 % of control (dose: 1.87 mg/kg/injection, schedule: Q01DX005 (ip), vehicle: saline); 108 % of control (dose: 3.75 mg/kg/injection, schedule: Q01DX005 (ip), vehicle: saline).

As for `CC1=C/C(O)CC(=O)Cc2nc(co2)C(=O)N2CCC=C2C(=O)OC(C(C)C)C(C)/C=C\C(=O)NC/C=C\1` (stereo not drawn), the T/C is 111 % of control (dose: 200.0 mg/kg/injection, schedule: Q01DX005 (ip), vehicle: Klucel (hydroxypropylcellulose) (HPC)); 114 % of control (dose: 400.0 mg/kg/injection, schedule: Q01DX005 (ip), vehicle: Klucel (hydroxypropylcellulose) (HPC)); 104 % of control and 107 % of control and 115 % of control (dose: 1.0 micrograms/kg/injection, schedule: Q01DX009 (ip), vehicle: Klucel (hydroxypropylcellulose) (HPC)); 111 % of control and 114 % of control and 121 % of control (dose: 2.0 micrograms/kg/injection, schedule: Q01DX009 (ip), vehicle: Klucel (hydroxypropylcellulose) (HPC)); 111 % of control and 112 % of control and 121 % of control (dose: 4.0 micrograms/kg/injection, schedule: Q01DX009 (ip), vehicle: Klucel (hydroxypropylcellulose) (HPC)); 104 % of control and 111 % of control and 123 % of control (dose: 8.0 micrograms/kg/injection, schedule: Q01DX009 (ip), vehicle: Klucel (hydroxypropylcellulose) (HPC)).

Turning to `NC(=S)N/N=C/c1cc(-c2cccc(N)c2)ccn1`, the T/C runs as follows: (dose: 6.25 mg/kg/injection, schedule: Q01DX009 (ip), vehicle: saline) 121 % of control; (dose: 9.4 mg/kg/injection, schedule: Q04DX003 (ip), vehicle: saline) 109 % of control; (dose: 18.8 mg/kg/injection, schedule: Q04DX003 (ip), vehicle: saline) 122 % of control; under setting [13], 119 % of control; (dose: 25.0 mg/kg/injection, schedule: Q01DX009 (ip), vehicle: saline) 150 % of control; under setting [10], 122 % of control. The T/C runs as follows: (dose: 50.0 mg/kg/injection, schedule: Q01DX009 (ip), vehicle: saline) 154 % of control; (dose: 75.0 mg/kg/injection, schedule: Q01DX009 (ip), vehicle: saline with Tween-80) 111 % of control and 122 % of control; (dose: 75.0 mg/kg/injection, schedule: Q01DX009 (ip), vehicle: saline) 158 % of control; (dose: 150.0 mg/kg/injection, schedule: Q04DX003 (ip), vehicle: saline) 123 % of control.

Regarding `O=S(=O)([O][Hg][CH2]C1Cc2ccccc2O1)[O][Hg][CH2]C1Cc2ccccc2O1` (stereo not drawn), the T/C (dose: 11.0 mg/kg/injection, schedule: Q01DX009 (ip), vehicle: saline with Tween-80) was 118 % of control.

As to `O=C(NCCCCCCCNC(=O)C12CC3CC(CC(C3)C1)C2)C12CC3CC(CC(C3)C1)C2`, the T/C (dose: 12.5 mg/kg/injection, schedule: Q01DX005 (ip), vehicle: saline with Tween-80) is 93 % of control; the T/C (dose: 25.0 mg/kg/injection, schedule: Q01DX005 (ip), vehicle: saline with Tween-80) is 89 % of control; the T/C under setting [1] was 88 % of control and 89 % of control.

Consider `O=C(CNC(=O)n1ccnc1)N/N=C/c1ccco1`, for which the T/C by setting is: under setting [1], 95 % of control; under setting [2], 92 % of control; under setting [3], 89 % of control.

Take `CC1(C)CC(=O)C2=C(C1)OC1=C(C(=O)CC(C)(C)C1)C2c1cccc([N+](=O)[O-])c1`: the T/C is, setting by setting: under setting [13], 104 % of control and 95 % of control; under setting [10], 100 % of control and 93 % of control; under setting [11], 93 % of control and 94 % of control; under setting [12], 93 % of control and 95 % of control.

For `COC(=O)c1cc(NC(=O)NNC(=O)c2ccncc2)cc(C(=O)OC)c1`, the T/C runs as follows: under setting [4], 100 % of control; under setting [5], 98 % of control; under setting [6], 116 % of control and 98 % of control; (dose: 100.0 mg/kg/injection, schedule: Q01DX009 (ip), vehicle: Klucel (hydroxypropylcellulose) (HPC)) 90 % of control.

Consider `O=C(O)C1C2c3ccccc3C(c3ccccc32)C1C(=O)NCC1CC1` (stereo not drawn), for which the T/C is 109 % of control (dose: 60.0 mg/kg/injection, schedule: Q01DX005 (ip), vehicle: Klucel (hydroxypropylcellulose) (HPC)) and 110 % of control (dose: 120.0 mg/kg/injection, schedule: Q01DX005 (ip), vehicle: Klucel (hydroxypropylcellulose) (HPC)).

Turning to `C1Cc2[nH]nc(-c3n[nH]c4c3CCC4)c2C1`, the T/C (dose: 60.0 mg/kg/injection, schedule: Q01DX005 (ip), vehicle: saline) is 97 % of control; the T/C (dose: 120.0 mg/kg/injection, schedule: Q01DX005 (ip), vehicle: saline) is 97 % of control; the T/C (dose: 240.0 mg/kg/injection, schedule: Q01DX005 (ip), vehicle: saline) was 97 % of control.

For the compound `CC[C@H]1C[C@H]2CN(CCc3c([nH]c4ccccc34)[C@@](C(=O)OC)(c3cc4c(cc3OC)N(C=O)[C@H]3[C@@](O)(C(=O)OC)[C@H](OC(C)=O)[C@]5(CC)C=CCN6CC[C@]43[C@@H]65)C2)C1`, the T/C was 155 % of control (dose: 0.5 mg/kg/injection, schedule: Q01DX001 (ip), vehicle: water); 156 % of control and 174 % of control (dose: 1.0 mg/kg/injection, schedule: Q01DX001 (ip), vehicle: water); 180 % of control (dose: 2.0 mg/kg/injection, schedule: Q01DX001 (ip), vehicle: water); 90 % of control (dose: 4.0 mg/kg/injection, schedule: Q01DX001 (ip), vehicle: water).

As for `Nc1ccc2c(c1)C(=O)N(OS(=O)(=O)c1ccccc1)C2=O`, the T/C is 106 % of control under setting [7], 107 % of control under setting [8] and 88 % of control under setting [9].

These data come from PubChem BioAssay AID330 (DTP/NCI, 2004).
